pIC50: −log10 of the molar value. “Also recorded” adds a separate entry of the source.
Columns and labels:
[1] = test system: CYP2B6; test: CYP induction in cultured human hepatocytes; format: in vitro ADME; settings: criteria >2-fold mRNA increase and ≥20% of positive control
[2] = target: T1, BSEP (Homo sapiens, UniProt O95342); test: Transporter inhibition, vesicular transport assay; format: in vitro ADME
T1 construct: host or cells: membrane vesicles

[3] = target: T2, OATP1B3 (Homo sapiens, UniProt Q9NPD5); test: Transporter inhibition, HEK293 cells; format: in vitro ADME
T2 construct: expressed in transfected cells; host or cells: HEK293
T2 sequence (Q9NPD5 1-702): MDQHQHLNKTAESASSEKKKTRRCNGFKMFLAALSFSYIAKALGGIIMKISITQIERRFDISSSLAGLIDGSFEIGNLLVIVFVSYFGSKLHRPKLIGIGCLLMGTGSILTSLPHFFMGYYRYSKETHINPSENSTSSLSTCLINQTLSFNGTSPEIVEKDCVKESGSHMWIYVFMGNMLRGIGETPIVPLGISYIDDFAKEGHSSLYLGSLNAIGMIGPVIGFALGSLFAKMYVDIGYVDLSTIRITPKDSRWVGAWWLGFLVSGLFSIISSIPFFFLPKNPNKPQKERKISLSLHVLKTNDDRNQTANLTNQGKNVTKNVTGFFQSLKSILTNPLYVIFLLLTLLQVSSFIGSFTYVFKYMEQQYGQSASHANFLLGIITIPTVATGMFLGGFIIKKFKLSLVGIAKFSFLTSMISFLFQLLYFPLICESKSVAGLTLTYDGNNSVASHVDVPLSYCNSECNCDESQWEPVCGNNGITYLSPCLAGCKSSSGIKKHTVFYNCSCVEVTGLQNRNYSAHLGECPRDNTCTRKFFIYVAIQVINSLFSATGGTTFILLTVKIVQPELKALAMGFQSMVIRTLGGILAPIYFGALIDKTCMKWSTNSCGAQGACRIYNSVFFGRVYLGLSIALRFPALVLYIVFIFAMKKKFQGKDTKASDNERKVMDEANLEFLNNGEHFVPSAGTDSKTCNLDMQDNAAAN

[4] = target: T3, MATE2-K (Homo sapiens, UniProt Q86VL8); test: Transporter inhibition, HEK293 cells; format: in vitro ADME
T3 construct: expressed in transfected cells; host or cells: HEK293

[5] = target: T4, BCRP (Homo sapiens, UniProt Q9UNQ0); test: Transporter substrate evaluation, MDCKII-BCRP cells; format: in vitro ADME
T4 sequence (Q9UNQ0 1-655): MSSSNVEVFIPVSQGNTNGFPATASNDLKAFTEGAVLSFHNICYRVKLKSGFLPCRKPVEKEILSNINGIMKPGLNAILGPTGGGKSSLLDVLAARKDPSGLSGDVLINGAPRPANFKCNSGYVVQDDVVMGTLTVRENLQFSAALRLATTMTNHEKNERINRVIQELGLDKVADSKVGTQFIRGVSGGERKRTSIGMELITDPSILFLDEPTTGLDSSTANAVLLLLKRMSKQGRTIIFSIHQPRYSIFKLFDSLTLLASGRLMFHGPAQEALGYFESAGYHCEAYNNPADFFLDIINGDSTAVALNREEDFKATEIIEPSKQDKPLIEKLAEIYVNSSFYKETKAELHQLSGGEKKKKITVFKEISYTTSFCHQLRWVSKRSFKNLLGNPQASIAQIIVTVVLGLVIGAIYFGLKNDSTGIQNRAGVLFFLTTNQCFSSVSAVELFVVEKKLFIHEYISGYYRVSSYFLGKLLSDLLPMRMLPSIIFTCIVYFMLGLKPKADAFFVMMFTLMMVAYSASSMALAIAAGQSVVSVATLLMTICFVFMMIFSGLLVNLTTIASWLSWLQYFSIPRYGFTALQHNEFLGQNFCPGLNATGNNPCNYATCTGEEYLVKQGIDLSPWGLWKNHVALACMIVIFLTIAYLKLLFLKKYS

[6] = In vitro metabolism studies and human mass balance clinical study; format: in vivo; settings: oxidative (CYP2C8, CYP2C9) and conjugation (UGT1A7, minor UGT1A1, UGT1A4) pathways
Source text: Compound 1 is eliminated from the systemic circulation mainly due to metabolism and biliary/fecal excretion.

[7] = target: P-gp (Homo sapiens, UniProt P08183)
[8] = target: T5, OATP1B1 (Homo sapiens, UniProt Q9Y6L6)
T5 sequence (Q9Y6L6 1-691): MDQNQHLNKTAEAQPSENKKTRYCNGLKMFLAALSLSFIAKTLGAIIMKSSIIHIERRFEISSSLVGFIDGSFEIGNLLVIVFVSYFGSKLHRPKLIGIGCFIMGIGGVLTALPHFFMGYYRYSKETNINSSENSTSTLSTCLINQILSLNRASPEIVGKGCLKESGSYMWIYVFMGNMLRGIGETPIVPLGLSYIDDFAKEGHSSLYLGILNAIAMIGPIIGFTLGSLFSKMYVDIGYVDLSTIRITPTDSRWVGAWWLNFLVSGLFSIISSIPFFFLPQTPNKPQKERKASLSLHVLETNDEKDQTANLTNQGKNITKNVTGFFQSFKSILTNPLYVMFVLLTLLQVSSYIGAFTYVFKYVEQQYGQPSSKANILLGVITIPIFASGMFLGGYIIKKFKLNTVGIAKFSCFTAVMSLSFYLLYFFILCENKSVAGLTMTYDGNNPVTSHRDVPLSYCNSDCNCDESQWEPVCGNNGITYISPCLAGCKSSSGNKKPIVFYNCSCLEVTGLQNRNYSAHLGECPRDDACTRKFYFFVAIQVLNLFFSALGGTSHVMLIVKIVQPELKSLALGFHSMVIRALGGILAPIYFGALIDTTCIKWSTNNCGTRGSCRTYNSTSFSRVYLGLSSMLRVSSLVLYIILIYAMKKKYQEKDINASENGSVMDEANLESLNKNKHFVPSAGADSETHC

T3 sequence (Q86VL8 1-566 isoform Q86VL8-3): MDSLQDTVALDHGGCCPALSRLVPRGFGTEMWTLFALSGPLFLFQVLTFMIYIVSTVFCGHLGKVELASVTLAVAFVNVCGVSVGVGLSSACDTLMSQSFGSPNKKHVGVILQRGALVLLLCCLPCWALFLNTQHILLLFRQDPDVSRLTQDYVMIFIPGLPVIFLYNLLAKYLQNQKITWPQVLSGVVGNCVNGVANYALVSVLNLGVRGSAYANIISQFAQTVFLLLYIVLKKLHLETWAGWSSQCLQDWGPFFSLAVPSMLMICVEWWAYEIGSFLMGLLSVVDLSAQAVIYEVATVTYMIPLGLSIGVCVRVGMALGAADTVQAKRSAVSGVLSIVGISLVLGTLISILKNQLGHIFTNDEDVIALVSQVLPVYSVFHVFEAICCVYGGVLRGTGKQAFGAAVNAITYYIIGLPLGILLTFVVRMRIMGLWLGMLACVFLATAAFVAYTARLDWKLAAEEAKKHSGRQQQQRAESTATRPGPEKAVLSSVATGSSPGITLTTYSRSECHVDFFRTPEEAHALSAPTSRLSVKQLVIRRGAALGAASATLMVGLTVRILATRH
T1 sequence (O95342 whole entry): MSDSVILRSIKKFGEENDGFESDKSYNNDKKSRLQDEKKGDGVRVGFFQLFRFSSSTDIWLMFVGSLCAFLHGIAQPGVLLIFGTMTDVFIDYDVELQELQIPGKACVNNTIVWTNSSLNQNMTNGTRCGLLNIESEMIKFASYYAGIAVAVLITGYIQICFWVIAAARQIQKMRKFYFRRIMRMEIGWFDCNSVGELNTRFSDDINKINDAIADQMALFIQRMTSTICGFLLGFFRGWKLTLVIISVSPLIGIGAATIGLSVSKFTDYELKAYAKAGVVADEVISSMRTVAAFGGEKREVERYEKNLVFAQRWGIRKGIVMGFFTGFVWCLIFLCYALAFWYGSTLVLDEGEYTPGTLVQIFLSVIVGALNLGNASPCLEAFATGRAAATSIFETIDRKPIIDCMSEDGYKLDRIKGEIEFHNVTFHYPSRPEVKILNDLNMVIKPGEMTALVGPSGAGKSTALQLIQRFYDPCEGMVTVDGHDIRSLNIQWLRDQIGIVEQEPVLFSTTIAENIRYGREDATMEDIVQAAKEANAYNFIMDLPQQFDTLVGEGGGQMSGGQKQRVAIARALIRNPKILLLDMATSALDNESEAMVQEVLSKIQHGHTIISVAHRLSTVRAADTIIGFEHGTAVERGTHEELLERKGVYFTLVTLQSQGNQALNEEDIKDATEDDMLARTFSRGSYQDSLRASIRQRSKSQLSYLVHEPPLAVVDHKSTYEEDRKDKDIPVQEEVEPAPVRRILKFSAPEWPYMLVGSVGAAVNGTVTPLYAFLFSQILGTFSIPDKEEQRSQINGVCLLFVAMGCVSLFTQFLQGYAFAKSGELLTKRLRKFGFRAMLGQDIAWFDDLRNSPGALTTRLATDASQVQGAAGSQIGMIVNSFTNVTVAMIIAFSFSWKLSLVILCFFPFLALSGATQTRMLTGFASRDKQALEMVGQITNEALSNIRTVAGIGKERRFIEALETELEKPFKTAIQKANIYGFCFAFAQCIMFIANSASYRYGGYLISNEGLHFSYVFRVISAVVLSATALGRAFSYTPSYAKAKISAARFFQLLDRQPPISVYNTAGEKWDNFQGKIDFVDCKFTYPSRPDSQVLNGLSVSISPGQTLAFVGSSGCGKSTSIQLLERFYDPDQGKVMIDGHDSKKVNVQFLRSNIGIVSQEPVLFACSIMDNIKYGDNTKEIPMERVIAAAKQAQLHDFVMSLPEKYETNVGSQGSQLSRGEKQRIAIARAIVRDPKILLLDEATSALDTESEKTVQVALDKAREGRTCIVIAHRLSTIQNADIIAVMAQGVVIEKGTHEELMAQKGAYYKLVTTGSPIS
Chain of P-gp (P08183 whole entry): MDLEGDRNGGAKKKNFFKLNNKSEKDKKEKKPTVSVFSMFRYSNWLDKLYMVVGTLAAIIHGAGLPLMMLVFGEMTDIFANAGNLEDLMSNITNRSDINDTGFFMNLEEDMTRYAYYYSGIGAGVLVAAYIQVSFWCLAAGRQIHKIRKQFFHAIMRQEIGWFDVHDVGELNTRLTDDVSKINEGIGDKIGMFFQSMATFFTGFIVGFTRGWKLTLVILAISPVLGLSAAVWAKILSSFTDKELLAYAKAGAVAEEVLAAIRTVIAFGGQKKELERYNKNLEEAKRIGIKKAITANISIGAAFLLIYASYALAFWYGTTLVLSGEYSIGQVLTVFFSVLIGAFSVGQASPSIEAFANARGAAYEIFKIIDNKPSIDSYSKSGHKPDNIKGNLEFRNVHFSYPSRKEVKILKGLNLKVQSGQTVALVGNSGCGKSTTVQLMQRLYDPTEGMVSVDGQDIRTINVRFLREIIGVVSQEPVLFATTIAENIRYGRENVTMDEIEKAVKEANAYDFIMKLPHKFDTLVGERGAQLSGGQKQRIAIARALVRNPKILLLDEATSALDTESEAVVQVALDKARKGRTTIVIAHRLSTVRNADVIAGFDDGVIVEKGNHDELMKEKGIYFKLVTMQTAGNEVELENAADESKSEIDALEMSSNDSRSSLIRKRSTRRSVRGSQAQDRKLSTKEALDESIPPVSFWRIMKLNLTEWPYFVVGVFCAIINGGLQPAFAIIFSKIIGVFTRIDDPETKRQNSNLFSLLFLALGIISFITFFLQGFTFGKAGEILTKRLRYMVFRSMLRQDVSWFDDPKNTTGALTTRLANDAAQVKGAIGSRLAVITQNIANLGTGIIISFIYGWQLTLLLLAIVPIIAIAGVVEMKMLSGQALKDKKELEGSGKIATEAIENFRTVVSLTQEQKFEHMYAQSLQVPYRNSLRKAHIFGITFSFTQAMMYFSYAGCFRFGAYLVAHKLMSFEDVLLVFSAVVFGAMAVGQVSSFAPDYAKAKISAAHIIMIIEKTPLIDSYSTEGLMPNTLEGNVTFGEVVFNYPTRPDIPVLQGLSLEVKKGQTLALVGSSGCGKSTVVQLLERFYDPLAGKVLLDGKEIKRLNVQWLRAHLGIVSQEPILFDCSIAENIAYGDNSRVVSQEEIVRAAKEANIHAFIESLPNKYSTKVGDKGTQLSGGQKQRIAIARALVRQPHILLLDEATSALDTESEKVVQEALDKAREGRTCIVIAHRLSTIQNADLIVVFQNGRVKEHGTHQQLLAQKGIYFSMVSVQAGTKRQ

With `O=C(O)C[C@H]1CCc2c1[nH]c1ccc(OCc3ccc(C4CCCC4)c(C(F)(F)F)c3)cc21` [Compound 1, (R)-2-(7-(4-cyclopentyl-3-(trifluoromethyl)benzyloxy)-1,2,3,4-tetrahydrocyclopenta[b]indol-3-yl)acetic acid] the “Induction potential for CYP2B6” value [1] was “no induction potential; also recorded: not a potential inducer”, the “Reduction of ATP-dependent uptake of [3H]-taurocholic acid in BSEP-expressing vesicles (inhibition)” value ([2]; 1 and 10 μM) was “less than 50%” and the pIC50 ([2]; vesicles, [3H]-taurocholic acid (0.4 μM), 1 and 10 μM tested) was < 5.00. For the same compound, the “Reduction of uptake rate of estradiol-17β-glucuronide into OATP1B3-expressing cells (inhibition)” value ([3]; 1 and 10 μM) was “less than 50%”, the pIC50 ([3]; HEK293 cells, [3H]-estradiol-17β-glucuronide (50 nM), 1 and 10 μM tested) was < 5.00 and the pIC50 ([4]; HEK293 cells, [14C]-metformin (10 μM), 1 and 10 μM tested) was < 5.00. The “Inhibition of MATE2-K” value ([4]; up to 10 μM) was “less than 50%”, the “Efflux ratio of Compound 1 across MDCKII-BCRP cells” value ([5]; 1 μM, absence and presence of Ko143 (1 μM)) was “less than two” and the efflux ratio at 10 μM ([5]; human, 10 μM) was 7.36. The recovery ([5]; human, MDCKII-BCRP assay) was 27 to 48%, the “Extent of metabolism (overall)” value [6] was > 25% and the pIC50 [7] was ~4.00. It also gave a pIC50 [8] of ~5.00.

Source: patent US20210228545A1, “METHODS OF TREATING CONDITIONS RELATED TO THE S1P1 RECEPTOR” (Arena Pharmaceuticals, Inc., priority 2018, published 2021)
